# Tested on: rpS6
# Experiment: Western blot of rpS6 phosphorylation in Shank3 knock down primary neurons
# Assay type: cell-based, rat
# Text: E18 primary rat cortical neurons were dissected, cultured and infected 6 days after plating (DIV6) with indicated lentiviruses at MOI 10, as previously described (Proenca et al., 2013). Lentiviruses were produced by calcium phosphate transfection of HEK293T cells with packaging plasmids (Life Technologies) and transfer plasmid in 10 cm dishes. Cells were transferred to fresh medium 6 hrs. post-transfection. Four days post-transfection, the cell medium was collected and pooled from several dishes, cleared of cellular debris by 0.45 μm filtration, and concentrated 100× by centrifugation at 19,000 g for 90 min in a Beckman Ultracentrifuge using a SW28/SW32 rotor. Pellets were suspended in PBS/0.5% BSA and viral titer was determined by ELISA quantification of viral p24 antigen (Zeptometrix Corp, USA). For shRNA plasmid generation, oligonucleotides were annealed and ligated into lentiviral transfer plasmid pLKO.1-GFP vector at the AgeI/EcoRI sites. The target sequences of shRNAs that target rat and mouse Shank3 (5′-3′) are: […] (SEQ ID NO: 1), […] (SEQ ID NO: 2), and […] (SEQ ID NO: 3). The latter was previously reported (Verpelli et al., 2011). A luciferase-targeting sequence was used as an shRNA control: […] (SEQ ID NO: 4). […]
Compound,"rpS6 phosphorylation (Shank3 knock down primary neurons, SC79 treatment)","rpS6 phosphorylation (Shank3 knock-down (shShank3) neurons, TG003 (FIG. 3F))"
CCOC(=O)C1=C(N)Oc2ccc(Cl)cc2C1C(C#N)C(=O)OCC (centres unmarked) [SC79],restored Akt and rpS6 phosphorylation,
"CCN1/C(=C/C(C)=O)Sc2ccc(OC)cc21 [TG003, (Z)-1-(3-ethyl-5-methoxy-2,3-dihydrobenzothiazol-2-ylidene)propan-2-one]",,restores Akt and rpS6 phosphorylation

# Source: US20180296537A1, “METHODS AND COMPOSITIONS FOR DIAGNOSING, TREATING, AND MONITORING TREATMENT OF SHANK3 DEFICIENCY ASSOCIATED DISORDERS” (Novartis AG, priority 2015, published 2018)
